Measured values reported in patent US20040110718A1, “Anti-HCV nucleoside derivatives” (priority 2000, published 2004).
Like-named read-outs stand apart in the source and are kept apart here.

Legend:
[1] = system: HCV replicon RNA replication; test: HCV replicon assay (quantification of replicon RNA, Northern blot / Taqman kinetic PCR); assay type: cell-based; details: Hepatitis C virus, Huh-7, 72 h
Description: Assay Method: The activity of the compounds was assayed using an adaptation of the method reported by Lohmann et al [V. Lohmann et al., Science, 1999, 285, 110-113].
The HCV replicon-containing cell line is used for the identification of small molecules that are able to inhibit the replication of the replicon RNA. Since the replicon RNA replication mimics the replication of the HCV RNA in infected hepatocytes, it is believed that those small molecules that have the above property are interesting for further development as anti-HCV drugs.
The inhibition of the HCV replicon RNA replication will lead to a decrease of the replicon RNA in the cell, which can be measured using a method that specifically quantifies this RNA.
Northern blot: One method for quantification of this RNA uses the standard Northern blot known to any person skilled in the art.
Kinetic PCR: A second assay for the quantification of replicon RNA is based on the amplification of the replicon RNA that remains in the cell, after incubation of the cells with a proper concentration of the small molecules. This method involves the reverse transcription of the replicon RNA to the corresponding complementary DNA (cDNA), followed by amplification of the cDNA using the Taqman Kinetic PCR technology (PE Biosystems). This consists of hybridisation of the cDNA with a complementary reporter oligonucleotide (probe), containing a combined fluorescent dye and a quencher dye. Amplification of the DNA sequence containing the hybridised reporter probe, using flanking oligonucleotide primers will lead to the separation of the fluorescent dye from the quencher dye. This will result in an increase of the fluorescence during each amplification cycle.
The neomycin phosphotransferase gene sequence that is present in the replicon RNA was chosen for amplification using specifically designed oligonucleotide primers. To control for (a) cell number that can vary depending on the toxicity or cytostatic effect of the small molecules, and (b) for errors during total RNA extraction, amplification of the host β-actin gene is used for normalisation.
The accumulation of the PCR products during the reaction is monitored directly by measuring the increase in fluorescence of the reporter dye. The amount of HCV replicon RNA (and β-actin RNA) originally present in the total RNA extracted from the cells is then expressed as a threshold cycle, e.g. the cycle at which there is a statistically significant increase in the fluorescence above the background.
For this procedure, HCV replicon-containing human hepatoma Huh7 cells (9-13) in growth medium (DMEM) containing 5% FCS are plated in a 96-well plate at 5×10^3 cells per well, and the plate incubated overnight. 24 hours later, different dilutions in 0.1 ml growth medium of chemical compounds were added to the wells, and the plate further incubated at 37° C. for three days. Total RNA coming from each well is extracted using the RNeasy™ procedure (Qiagen manufacturer instructions), and the total RNA is eluted in a final volume of 0.13 ml. Next, a 2 μl sample of the total RNA is used for convertion into cDNA using a reverse transcription (RT) step. A RT mastermix containing 1 μl 10× Taqman RT buffer, 2.2 μl 25 mM MgCl2 (5.5 mM final conc.), 2 μl dNTP mix (500 μM each), 0.5 μl random hexamer primers (2.5 μM), 0.2 μl RNase inhibitor (0.4 u/μl ), 0.25 μl RT (1.25 u/μl ), 1.85 μl H2O, was distributed in a 96-well plate and 2 μl total RNA was added to each well.
The RT reaction is performed by incubation of the plate 10 min at 25° C., 30 min at 48° C., 5 min at 95° C. and cooling to 4° C. The cDNA samples are then stored at −20° C. or directly used for the PCR reaction. […]

[2] = HCV replicon-containing human hepatoma Huh7 cells (9-13), three days incubation, concentration reducing replicon RNA levels by 50%, read-out: IC50

## O=c1ccn([C@@H]2O[C@H](CO)[C@@H](O)[C@H]2Br)c(=O)[nH]1
other
  melting point: 194 to 195 °C

## Nc1nc(-c2ccccc2)c2ncn([C@@H]3O[C@H](CO)[C@@H](O)[C@H]3O)c2n1
other
  melting point: 187 to 190 °C

## Nc1ccn([C@H]2O[C@@H](CO)[C@H](O)[C@@H]2O)c(=O)n1 [Example 244, L-cytidine]
[1]; [2]
  IC50: 10000 nM

## Nc1ncnc2c1nc(NCc1cccnc1)n2[C@@H]1O[C@H](CO)[C@@H](O)[C@H]1O
other
  melting point: 235 to 237 °C (dec.)

## OC[C@H]1O[C@@H](n2cnc3c(N4CCc5ccccc5C4)ncnc32)[C@H](O)[C@@H]1O [Example 57, 9-(β-D-Ribofuranosyl)-6-(1,2,3,4-tetrahydro-2-isoquinolyl)purine]
[1]; [2]
  IC50: 100 nM

## OC[C@H]1O[C@@H](n2cnc3c(N4CCCC4)ncnc32)[C@H](O)[C@@H]1O [Example 77, 6-(1-Pyrrolidinyl)-9-(β-D-ribofuranosyl)purine]
[1]; [2]
  IC50: 2600 nM

## Nc1ccn([C@@H]2C[C@H](CO)[C@@H](O)C2(F)F)c(=O)n1 [Example 245, 1-[1(R)-2,2-difluoro-3(R)-hydroxy-4(R)-(hydroxymethyl)cyclopentyl]-4-amino-1H-pyrimindin-2-one]
[1]; [2]
  IC50: 2000 nM

## Nc1ccn([C@@H]2O[C@H](CO)[C@@H](O)C2(F)F)c(=O)n1 [Example 243, 1-(2-deoxy-2,2-difluoro-β-D-erythropentofuranosyl)cytosine]
[1]; [2]
  IC50: 70 nM

## CSc1ncnc2c1ncn2[C@@H]1O[C@H](CO)[C@@H](O)[C@H]1O [Example 16, 6-Methylthio-9-(β-D-ribofuranosyl)purine]
[1]; [2]
  IC50: 80 nM

## Nc1ncnc2c1nc(NCCc1ccc(S(N)(=O)=O)cc1)n2[C@@H]1O[C@H](CO)[C@@H](O)[C@H]1O
other
  melting point: 157 to 163 °C (dec.)

## CCc1cn([C@@H]2O[C@H](CO)[C@@H](O)[C@H]2O)c(=O)[nH]c1=O
other
  melting point: 180 to 181 °C

## OC[C@H]1O[C@@H](n2cnc3c(-n4ccnc4)ncnc32)[C@H](O)[C@@H]1O [Example 111, 6-(1-Imidazolyl)-9-(β-D-ribofuranosyl)purine]
[1]; [2]
  IC50: 6200 nM

## Nc1ncnc2c1nc(NCCC1CCCCC1)n2[C@@H]1O[C@H](CO)[C@@H](O)[C@H]1O
other
  melting point: 203 to 205 °C

## Nc1ncnc2c1nc(NCCCCCCc1ccccc1)n2[C@@H]1O[C@H](CO)[C@@H](O)[C@H]1O
other
  melting point: 165 to 167 °C

## C=CCNc1ncnc2c1ncn2[C@@H]1O[C@H](CO)[C@@H](O)[C@H]1O [Example 80, 6-(2-Propenyl)amino-9-(β-D-ribofuranosyl)purine]
[1]
  IC50: 5700 nM

## C=CCNc1nc2c(N)ncnc2n1[C@@H]1O[C@H](CO)[C@@H](O)[C@H]1O
other
  melting point: 234 to 237 °C (dec.)

## Nc1ncnc2c1nc(N1CCc3ccccc3C1)n2[C@@H]1O[C@H](CO)[C@@H](O)[C@H]1O
other
  melting point: 145 to 150 °C (dec.)

## N=c1c2ncn([C@@H]3O[C@H](CO)[C@@H](O)[C@H]3O)c2ncn1Cc1ccccc1 [Example 93, 1-Benzyl-6-imino-9-(β-D-ribofuranosyl)purine]
[1]; [2]
  IC50: 4500 nM

## Nc1ncnc2c1nc(NCc1ccccc1)n2[C@H]1C[C@H](O)[C@@H](CO)O1
other
  melting point: 132 to 134 °C

## OC[C@H]1O[C@@H](n2cnc3c(-n4cccc4)ncnc32)[C@H](O)[C@@H]1O [Example 105, 6-(1-Pyrrolyl)-9-(β-D-ribofuranosyl)purine]
[1]; [2]
  IC50: 100 nM

## Nc1ncnc2c1nc(NCCc1ccc(Cl)cc1)n2[C@@H]1O[C@H](CO)[C@@H](O)[C@H]1O
other
  melting point: 155 to 158 °C (dec.)

## OC[C@@H]1C[C@@H](O)[C@H](n2cnc3c(-n4cccc4)ncnc32)O1
other
  melting point: 175 to 176 °C

## OC[C@@H]1O[C@H](n2cnc3c(-n4cccc4)ncnc32)[C@@H](O)[C@H]1O
other
  melting point: 114 to 115 °C

## CN(CCc1ccccc1)c1nc2c(N)ncnc2n1[C@@H]1O[C@H](CO)[C@@H](O)[C@H]1O
other
  melting point: 118 to 120 °C

## OC[C@H]1O[C@@H](n2cnc3c(-n4cncn4)ncnc32)[C@H](O)[C@@H]1O [Example 112, 9-(β-D-Ribofuranosyl)-6-(1,2,4-triazol-1-yl)purine]
[1]; [2]
  IC50: 4400 nM

## O=c1[nH]/c(=N/O)ccn1[C@@H]1O[C@H](CO)[C@@H](O)[C@H]1O [Example 239, 4-oximino-1-(β-D-ribofuranosyl)pyrimidin-2(1H)-one]
[1]; [2]
  IC50: 1300 nM

## OC[C@H]1O[C@@H](n2cnc3c(N4CCCC4)nc(Cl)nc32)[C@H](O)[C@@H]1O
other
  melting point: 229 °C

## Nc1ncnc2c1nc(N1CCCCC1)n2[C@@H]1O[C@H](CO)[C@@H](O)[C@H]1O
other
  melting point: 207 to 209 °C (dec.)

## Nc1ncnc2c1nc(NCCc1c[nH]cn1)n2[C@@H]1O[C@H](CO)[C@@H](O)[C@H]1O
other
  melting point: 148 to 156 °C (dec.)

## Nc1ncnc2c1nc(NCCc1ccccc1)n2[C@H]1C[C@H](O)[C@@H](CO)O1
other
  melting point: 192 to 195 °C

## Nc1ncnc2c1nc(NCCc1ccc(O)cc1)n2[C@@H]1O[C@H](CO)[C@@H](O)[C@H]1O
other
  melting point: 262 to 265 °C (dec.)

## O=c1ccn([C@@H]2O[C@H](CO)[C@@H](O)[C@H]2Cl)c(=O)[nH]1
other
  melting point: 206 to 207 °C

## OC[C@H]1O[C@@H](n2cnc3c(-n4cccn4)ncnc32)[C@H](O)[C@@H]1O [Example 113, 6-(1-Pyrazolyl)-9-(β-D-ribofuranosyl)purine]
[1]; [2]
  IC50: 4400 nM

## OC[C@H]1O[C@@H](n2cnc3c(-n4cccc4)ncnc32)[C@@H](O)[C@@H]1O
other
  melting point: 212 to 213 °C

## Nc1ncnc2c1nc(NCCCCCCc1ccccc1)n2[C@H]1C[C@H](O)[C@@H](CO)O1
other
  melting point: 159 to 161 °C

## Nc1ncnc2c1nc(NCCCCc1ccccc1)n2[C@@H]1O[C@H](CO)[C@@H](O)[C@H]1O
other
  melting point: 190 °C

## Nc1c2ncn([C@@H]3O[C@H](CO)[C@@H](O)[C@H]3O)c2nc[n+]1[O-] [Example 7, Adenosine-1-oxide]
[1]; [2]
  IC50: 2000 nM

## Nc1ncnc2c1nc(N1CCN(c3ccccc3)CC1)n2[C@@H]1O[C@H](CO)[C@@H](O)[C@H]1O
other
  melting point: 220 to 223 °C (dec.)

## Cn1cccc1CCNc1nc2c(N)ncnc2n1[C@@H]1O[C@H](CO)[C@@H](O)[C@H]1O
other
  melting point: 225 to 228 °C

## OC[C@H]1O[C@@H](n2cnc3c(Cl)ncnc32)[C@H](O)[C@@H]1O [Example 19, 6-Chloro-9-(β-D-ribofuranosyl)purine]
[1]
  IC50: 14000 nM

## Cc1ccc(CCNc2nc3c(N)ncnc3n2[C@@H]2O[C@H](CO)[C@@H](O)[C@H]2O)cc1
other
  melting point: 117 to 124 °C (dec.)

## Nc1ncnc2c1nc(NCCCc1ccccc1)n2[C@@H]1O[C@H](CO)[C@@H](O)[C@H]1O
other
  melting point: 180 to 183 °C

## CN(C)c1ncnc2c1ncn2[C@@H]1O[C@H](CO)[C@@H](O)[C@H]1O [Example 1, 6-Dimethylamino-9-(β-D-ribofuranosyl)purine]
[1]; [2]
  IC50: 600 nM

## O=c1[nH]c(=O)n([C@@H]2O[C@H](CO)[C@@H](O)[C@H]2O)cc1F [Example 24, 5-Fluorouridine]
[1]; [2]
  IC50: 1400 nM

## Nc1ncnc2c1nc(NCCN1CCOCC1)n2[C@@H]1O[C@H](CO)[C@@H](O)[C@H]1O
other
  melting point: 210 to 215 °C

## Nc1ncnc2c1nc(NCc1cccc3ccccc13)n2[C@@H]1O[C@H](CO)[C@@H](O)[C@H]1O
other
  melting point: 140 to 150 °C

## Nc1ncnc2c1nc(NCCCCc1ccccc1)n2[C@H]1C[C@H](O)[C@@H](CO)O1
other
  melting point: 168 to 171 °C

## Nc1ncnc2c1nc(N1CCOCC1)n2[C@@H]1O[C@H](CO)[C@@H](O)[C@H]1O
other
  melting point: 210 to 213 °C

## Nc1ncnc2c1nc(NCCCc1ccccc1)n2[C@H]1C[C@H](O)[C@@H](CO)O1
other
  melting point: 198 to 201 °C

## Nc1ncnc2c1nc(NCCc1ccc(Cl)cc1Cl)n2[C@@H]1O[C@H](CO)[C@@H](O)[C@H]1O
other
  melting point: 164 to 168 °C (dec.)
